Measurements as given in patent US20190133979A1, “METHOD FOR ENHANCING DELIVERY OF THERAPEUTIC DRUGS TO TREATMENT SITES” (Chang Gung University, priority 2013, published 2019).
“Also recorded” adds a separate entry of the source.

What was measured:
[1] = tested on: LN229 cells; test: Determination of cell-associated MNPs (MNPcell) in LN229 cells; assay type: cell-based, human; conditions: for effect on uptake of MNPs, in words: MNPs 100 μg/mL, 10 or 30 μM, 24 hrs, vs vehicle; for increase of MNPcell / enhancement of MNPcell at 4° C.: LN229 cells; for enhancement of MNPcell at 4° C.: 30 μM, 2 h; for effect on cell-associated MNPs (MNPcell), in words: LN-229 cells, with or without magnetic field; for increase of cellular uptake of MNP: vs without compound; for concentration as low as which cellular uptake of MNPs is significantly increased / capability of enhancing cellular uptake of MNPs, in words: FIG. 4; for capability of enhancing cellular uptake of MNPs, in words: LN-299 [sic] cells
Procedure: (§1) LN229 cells, human glioma cells, were cultured in DMEM medium; whereas HeLa cells, human cervical cancer cells, were cultured in MEM medium. Both media were supplemented with 10% fetal bovine serum (FBS) and 1% penicillin/streptomycin/amphotericin B solution. The cells were maintained in a 37° C. incubator supplied with 5% CO2 and sub-cultured every 3 to 4 days.
LN229 or HeLa cells were seeded and grown in 24-well plates. […] In some experiments, cells were equilibrated at 4° C. for 20 min, followed by an additional 2-h incubation with MNPs at 4° C. in the absence and presence of the magnet. A home-made magnetic plate with 24 pieces of cylindrical NdFeB magnet were used to provide a magnetic field of 3.4 kG at the center of each well. For the group without the magnet during incubation with MNPs, the magnetic plate was placed underneath the culture plates for 5 min after MNP administration to facilitate MNP sedimentation. The cells were then washed twice with phosphate-buffered saline (PBS) and trypsinized prior to colorimetric quantification. The cell pellet containing cell-associated MNPs (MNPcell) was treated with 10% hydrochloric acid at 55° C. for 4 h, followed by adding ammonium persulfate (1 mg/mL) and potassium thiocyanate solution (1 M). The amount of cell-associated iron was determined with VICTOR3 Multilabel Plate Reader (PerkinElmer, Waltham, Mass.) at OD490. A calibration curve was prepared under identical conditions.

[2] = tested on: HeLa cells; test: Determination of cell-associated MNPs (MNPcell) in HeLa cells; assay type: cell-based, human; conditions: for increase of MNPcell: 10 μM; for effect on cell-associated MNPs (MNPcell), in words: with or without magnetic field
Procedure: as §1
(§2) LN229 or HeLa cells were seeded and grown in 24-well plates. After attaining 80-90% confluence, the cells were exposed to MNPs (100 μg/mL) and phenolic compounds (10 or 30 μM) in the presence or absence of NdFeB magnet underneath the plate for 24 h. In some experiments, cells were equilibrated at 4° C. for 20 min, followed by an additional 2-h incubation with MNPs at 4° C. in the absence and presence of the magnet. A home-made magnetic plate with 24 pieces of cylindrical NdFeB magnet were used to provide a magnetic field of 3.4 kG at the center of each well. For the group without the magnet during incubation with MNPs, the magnetic plate was placed underneath the culture plates for 5 min after MNP administration to facilitate MNP sedimentation. The cells were then washed twice with phosphate-buffered saline (PBS) and trypsinized prior to colorimetric quantification. The cell pellet containing cell-associated MNPs (MNPcell) was treated with 10% hydrochloric acid at 55° C. for 4 h, followed by adding ammonium persulfate (1 mg/mL) and potassium thiocyanate solution (1 M). The amount of cell-associated iron was determined with VICTOR3 Multilabel Plate Reader (PerkinElmer, Waltham, Mass.) at OD490. A calibration curve was prepared under identical conditions.

[3] = tested on: LN229 cells; test: Confocal microscopy of fluorescent CMX-MNP internalization; assay type: cell-based, human
Procedure: LN229 cells were seeded onto poly-lysine coated coverslips 18 h before experiments. The cells were incubated with green fluorescent MNPs with carboxylmethyl-dextran coating (nano-screenMAG-CMX; 100 μg/mL) and methyl gallate (30 μM) at 37° C. for 2 h in the presence of NdFeB magnet underneath the culture plate. Cells were then washed twice with PBS and then incubated with Lysotracker® (0.125 μM) for 30 min for staining of lysosomes. The cells were than washed with PBS and fixed with 4% paraformaldehyde for 20 min at room temperature. The cells were counterstained with DAPI and imaged with a Zeiss LSM 510 Meta laser confocal microscope system equipped with a 100×/1.4 oil immersion objective lens. Image processing and analysis of fluorescent MNPs colocalized with cells was performed using Fiji Image J.

[4] = tested on: tumor cells; test: Timing of EGCG and MNP addition, MNPcell in 5 study groups; assay type: cell-based
Procedure: as §2
In this example, the timing for adding the present polyphenolic compound with MNPs to the tumor cells was investigated. To this purpose, 5 study groups were designed and respectively treated with the designated compounds, then the MNPcell in each group was determined. The concentrations of MNPs and epigallocatechin gallate (EGCG) or compound 12 used in this example were respectively 100 μg/mL and 10 μM. In Group I (the control group), cells were treated with MNPs (2 hrs). In Group 2, cells were first treated with EGCG (2 hrs), which was removed, and then with MNPs (2 hrs). In Group 3, cells were simultaneously treated with EGCG and MNPs for 2 hours. In Group 4, cells were first treated with EGCG (2 hrs), then with the combination of MNP and EGCG (2 hrs). […]

[5] = 10 μM, magnetic field-free environment

CCCOC(=O)c1cc(O)c(O)c(O)c1 [Compound 3, Propyl Gallate]
effect on uptake of MNPs, in words ([1]; absence of magnet): effective in enhancing the uptake of MNPs
effect on uptake of MNPs, in words ([1]; presence of magnet): effective in enhancing the uptake of MNPs

COC(=O)c1cc(O)c(O)c(O)c1 [Compound 2, Methyl Gallate]
increase of MNPcell ([1]; 10 μM, absence of the magnet): 1.4 fold
increase of MNPcell ([1]; 10 μM, magnet underneath cells): 2.1 fold
increase of MNPcell ([1]; 50 μM, absence of the magnet): 4.5 fold
increase of MNPcell ([1]; 50 μM, presence of the magnet): 2.9 fold
enhancement of MNPcell at 4° C. ([1]; with the magnet): 0.4 fold
enhancement of MNPcell at 4° C. ([1]; without magnet): 1.4 fold
effect on cell-associated MNPs (MNPcell), in words ([1]; listed as Methyl gallate): enhanced MNPcell in a concentration-dependent manner
effect on cell-associated MNPs (MNPcell), in words ([1]; listed as methyl gallate): concentration-dependent increase
effect on uptake of MNPs, in words ([1]; absence of magnet): effective in enhancing the uptake of MNPs
effect on uptake of MNPs, in words ([1]; presence of magnet): effective in enhancing the uptake of MNPs
increase of MNPcell ([2]; absence of the magnet): 0.6 fold
increase of MNPcell ([2]; presence of the magnet): 1.0 fold
effect on cell-associated MNPs (MNPcell), in words [2]: concentration-dependent increase
internalization of MNPs, in words ([3]; 30 μM, 2 h, CMX-MNP 100 μg/mL, compared to vehicle control): greatly increased internalization of MNPs
overlap coefficient, Mander's coefficient, of MNP relative to lysosomes ([3]; in the presence of methyl gallate (n=8), vehicle 0.51±0.08): 0.65±0.03

O.O=C(O)c1cc(O)c(O)c(O)c1 [Compound 1, Gallic acid monohydrate]
increase of MNPcell ([1]; 50 μM, absence of the magnet): 5.4 fold
increase of MNPcell ([1]; 50 μM, presence of the magnet): 3.9 fold
enhancement of MNPcell at 4° C. ([1]; with the magnet): 0.6 fold
enhancement of MNPcell at 4° C. ([1]; without magnet): 1.9 fold
effect on cell-associated MNPs (MNPcell), in words [1]: concentration-dependent increase
effect on uptake of MNPs, in words ([1]; absence of magnet): effective in enhancing the uptake of MNPs
effect on uptake of MNPs, in words ([1]; presence of magnet): effective in enhancing the uptake of MNPs
concentration as low as which a significant increase in LN229 cell-associated MNPs is induced ([1]; compared to vehicle, with and without magnet): 6 µM
increase of MNPcell ([2]; absence of the magnet): 1.8 fold
increase of MNPcell ([2]; presence of the magnet): 1.9 fold
effect on cell-associated MNPs (MNPcell), in words [2]: concentration-dependent increase

O=C(O)c1ccc(O)c(O)c1 [Compound 5, protocatechuic acid]
effect on uptake of MNPs, in words ([1]; presence of magnet): enhanced the uptake of MNPs in the presence of magnet

O=C(O[C@@H]1Cc2c(O)cc(O)cc2O[C@@H]1c1ccc(O)c(O)c1)c1cc(O)c(O)c(O)c1 [Compound 13, Epicatechin gallate]
increase of cellular uptake of MNP ([1]; 10 μM, external magnetic field): 5-6 times
increase of cellular uptake of MNP [1, 5]: 12 times
concentration as low as which cellular uptake of MNPs is significantly increased [1]: 3 µM
capability of enhancing cellular uptake of MNPs, in words ([1]; listed as ECG): possessed the capability of enhancing cellular uptake of MNPs; also recorded: enhanced cellular uptake of MNPs

COc1cc(/C=C/C(=O)O)ccc1O [Compound 11, ferulic acid]
effect on uptake of MNPs, in words ([1]; absence of magnet): none of them was effective
effect on uptake of MNPs, in words ([1]; presence of magnet): none of them was effective

O=c1c(O)c(-c2ccc(O)c(O)c2)oc2cc(O)cc(O)c12 [quercetin]
cellular uptake of MNP higher than without compound ([1]; 20 μM, absence of magnetic field): 5 times
capability of enhancing cellular uptake of MNPs, in words [1]: possessed the capability of enhancing cellular uptake of MNPs; also recorded: enhanced cellular uptake of MNPs
effect on uptake of MNP in the presence of magnet, in words ([1]; presence of magnet): more significant increase in the uptake of MNP via a concentration-dependent manner

O=C(O)c1cc(O)cc(O)c1 [Compound 7, α-resorcylic acid]
effect on uptake of MNPs, in words ([1]; absence of magnet): none of them was effective
effect on uptake of MNPs, in words ([1]; presence of magnet): none of them was effective

O=C(O)/C=C/c1ccc(O)c(O)c1 [Compound 9, caffeic acid]
effect on uptake of MNPs, in words ([1]; presence of magnet): enhanced the uptake of MNPs in the presence of magnet

O=C(O)c1ccc(O)cc1 [Compound 6, p-hydroxybenzoic acid]
effect on uptake of MNPs, in words ([1]; absence of magnet): none of them was effective
effect on uptake of MNPs, in words ([1]; presence of magnet): none of them was effective

O=C(O[C@@H]1Cc2c(O)cc(O)cc2O[C@@H]1c1cc(O)c(O)c(O)c1)c1cc(O)c(O)c(O)c1 [Compound 12, Epigallocatechin gallate]
increase of cellular uptake of MNP ([1]; 10 μM, external magnetic field): 16 times
increase of cellular uptake of MNP [1, 5]: 5.7 times
concentration as low as which cellular uptake of MNPs is significantly increased [1]: 3 µM
capability of enhancing cellular uptake of MNPs, in words ([1]; listed as EGCG): possessed the capability of enhancing cellular uptake of MNPs; also recorded: enhanced cellular uptake of MNPs
uptake of MNPs, in words ([4]; Group 2: EGCG 10 μM 2 hrs, removed, then MNPs 100 μg/mL 2 hrs): no enhanced uptake of MNPs was found
uptake of MNPs, in words ([4]; Group 3: EGCG 10 μM and MNPs 100 μg/mL simultaneously 2 hours, presence and absence of magnet): enhanced uptake of MNPs was achieved
uptake of MNPs, in words ([4]; Groups 4 and 5: EGCG pre-treatment 2 or 4 hrs, then MNP and EGCG 2 hrs, vs Group 3): did not result in further increase in the cellular uptake of MNPs

NC(=O)c1cc(O)c(O)c(O)c1 [Compound 4, 3,4,5-trihydroxybenzamide]
effect on uptake of MNPs, in words ([1]; absence of magnet): effective in enhancing the uptake of MNPs
effect on uptake of MNPs, in words ([1]; presence of magnet): effective in enhancing the uptake of MNPs

O=C(O)CCc1ccc(O)c(O)c1 [Compound 10, Dihydrocaffeic Acid]
effect on uptake of MNPs, in words ([1]; presence of magnet): enhanced the uptake of MNPs in the presence of magnet
